Here are results for 18 compounds from ChEMBL document CHEMBL4680217, “Discovery of PROTAC BCL-X degraders as potent anticancer agents with low on-target platelet toxicity” (Eur J Med Chem, 2020).

For data set [1], the target named is T1, von Hippel-Lindau disease tumor suppressor/Bcl-2-like protein 1 (Homo sapiens, UniProt Q07817+P40337). Put plainly: Protac activity at VHL/BCL-XL in human MOLT-4 cells assessed as induction of BCL-XL degradation measured after 16 hrs by immunoblotting analysis. It counts as cell-based. (Immunoblotting shows a protein as a band on a membrane.)
Target sequence in this assay (Q07817 whole entry): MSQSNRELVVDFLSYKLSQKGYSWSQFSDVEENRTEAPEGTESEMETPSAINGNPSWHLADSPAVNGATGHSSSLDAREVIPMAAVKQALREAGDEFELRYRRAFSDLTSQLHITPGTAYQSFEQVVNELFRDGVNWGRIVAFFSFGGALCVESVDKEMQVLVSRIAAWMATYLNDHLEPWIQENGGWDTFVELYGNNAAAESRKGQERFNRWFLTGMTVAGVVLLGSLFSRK
Target sequence in this assay (P40337 whole entry): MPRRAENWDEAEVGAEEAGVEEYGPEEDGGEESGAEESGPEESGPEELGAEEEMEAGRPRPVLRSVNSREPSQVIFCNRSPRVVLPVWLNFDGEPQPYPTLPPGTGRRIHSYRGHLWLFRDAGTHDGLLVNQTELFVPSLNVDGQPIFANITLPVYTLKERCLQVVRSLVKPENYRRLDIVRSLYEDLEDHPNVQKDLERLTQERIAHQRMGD
The subject of a further data set is MOLT-4. Put plainly: Antiproliferative activity against human MOLT-4 cells assessed as reduction in cell viability measured after 48 hrs by MTS assay. It counts as functional, cell-based. The conditions noted are these: MOLT-4, 48 h. A general note: Tetrazolium assays rely on reduction of a dye to a coloured formazan, in cell work by metabolically active cells.

Data set [2] addresses T1, von Hippel-Lindau disease tumor suppressor/Bcl-2-like protein 1. Put plainly: Protac activity at VHL/BCL-XL in human MOLT-4 cells assessed as induction of BCL-XL degradation by measuring remaining BCL-XL level at 100 nM measured after 16 hrs by immunoblotting analysis relative to control. It counts as cell-based.
Target sequence in this assay (P40337 whole entry, looked up): as the sequence (P40337 whole entry) above
Target sequence in this assay (Q07817 whole entry, looked up): as the sequence (Q07817 whole entry) above
Data set [3] concerns the target von Hippel-Lindau disease tumor suppressor/Apoptosis regulator Bcl-2 (Homo sapiens) (UniProt P10415+P40337). The data set can be described thus: Protac activity at VHL/BCL2 in human MOLT-4 cells assessed as induction of BCL2 degradation at 100 nM measured after 16 hrs by immunoblotting analysis. It counts as cell-based.
Another data set relates to RS4-11. The data set can be described thus: Antiproliferative activity against human RS4-11 cells assessed as reduction in cell viability measured after 48 hrs by MTS assay. It counts as functional, cell-based. The conditions noted are these: RS4-11, 48 h.
The test system of a further data set is NCI-H146. The data set can be described thus: Antiproliferative activity against human NCI-H146 cells assessed as reduction in cell viability measured after 48 hrs by MTS assay. It counts as functional, cell-based. The conditions noted are these: NCI-H146, 48 h.
The nature of data set [4]: Toxicity in human platelet assessed as reduction in cell viability measured after 48 hrs by MTS assay. It counts as tissue-based. The conditions noted are these: human platelets.
Data set [5] in a line: Selectivity index, ratio of IC50 for human platelet to IC50 for human MOLT-4 cells.
In data set [6] the target is T2, Protein cereblon/Bcl-2-like protein 1 (Homo sapiens, UniProt Q07817+Q96SW2). The data set can be described thus: Protac activity at CRBN/BCL-XL in human MOLT-4 cells assessed as induction of BCL-XL degradation measured after 16 hrs by immunoblotting analysis. The data set is classed as cell-based.
Target sequence in this assay (Q07817 whole entry): as above
Target sequence in this assay (Q96SW2 whole entry): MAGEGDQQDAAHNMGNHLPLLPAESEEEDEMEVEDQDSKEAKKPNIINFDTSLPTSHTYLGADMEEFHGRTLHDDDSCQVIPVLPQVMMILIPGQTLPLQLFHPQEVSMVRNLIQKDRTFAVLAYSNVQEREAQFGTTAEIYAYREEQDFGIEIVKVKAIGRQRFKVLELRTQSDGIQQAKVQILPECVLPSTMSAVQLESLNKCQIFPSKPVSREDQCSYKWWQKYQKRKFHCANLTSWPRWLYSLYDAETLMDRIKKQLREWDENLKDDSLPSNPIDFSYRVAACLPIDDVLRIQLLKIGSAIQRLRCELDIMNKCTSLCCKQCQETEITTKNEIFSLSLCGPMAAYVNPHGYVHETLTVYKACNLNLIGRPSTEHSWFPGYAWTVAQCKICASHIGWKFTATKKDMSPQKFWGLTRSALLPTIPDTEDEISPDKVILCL
The target of data set [7] is T2, Protein cereblon/Bcl-2-like protein 1. Put plainly: Protac activity at CRBN/BCL-XL in human MOLT-4 cells assessed as induction of BCL-XL degradation by measuring remaining BCL-XL level at 50 nM measured after 16 hrs by immunoblotting analysis relative to control. It counts as cell-based.
Target sequence in this assay (Q07817 whole entry, looked up): as the sequence (Q07817 whole entry) above
Target sequence in this assay (Q96SW2 whole entry, looked up): as the sequence (Q96SW2 whole entry) above
Data set [8] has as its target Protein cereblon/Apoptosis regulator Bcl-2 (Homo sapiens) (UniProt P10415+Q96SW2). The data set can be described thus: Protac activity at CRBN/BCL2 in human MOLT-4 cells assessed as induction of BCL2 degradation at 50 nM measured after 16 hrs by immunoblotting analysis. It counts as cell-based.

Active and inactive are the calls of the source. The rule behind the calls is not given here.

Chain of von Hippel-Lindau disease tumor suppressor/Apoptosis regulator Bcl-2 (Homo sapiens) (P10415 whole entry, looked up): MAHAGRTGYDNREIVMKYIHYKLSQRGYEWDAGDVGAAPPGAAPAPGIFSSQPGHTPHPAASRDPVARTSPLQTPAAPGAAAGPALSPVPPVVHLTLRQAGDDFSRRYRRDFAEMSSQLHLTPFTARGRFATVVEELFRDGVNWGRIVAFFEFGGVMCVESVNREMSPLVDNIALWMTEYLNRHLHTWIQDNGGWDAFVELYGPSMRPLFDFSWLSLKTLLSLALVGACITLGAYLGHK
Chain of von Hippel-Lindau disease tumor suppressor/Apoptosis regulator Bcl-2 (Homo sapiens) (P40337 whole entry, looked up): as the sequence (P40337 whole entry) above
Chain of Protein cereblon/Apoptosis regulator Bcl-2 (Homo sapiens) (P10415 whole entry, looked up): as the sequence (P10415 whole entry, looked up) above
Chain of Protein cereblon/Apoptosis regulator Bcl-2 (Homo sapiens) (Q96SW2 whole entry, looked up): as the sequence (Q96SW2 whole entry) above

By DC50 is commonly meant the concentration at which degradation of the target reaches its halfway point. One may read the IC50 as the concentration that inhibits the measured activity by half. With `Cc1ncsc1-c1ccc([C@H](C)NC(=O)[C@@H]2C[C@@H](O)CN2C(=O)[C@@H](NC(=O)CCCCCC(=O)N2CCN(CC[C@H](CSc3ccccc3)Nc3ccc(S(=O)(=O)NC(=O)c4ccc(N5CCN(CC6=C(c7ccc(Cl)cc7)CCC(C)(C)C6)CC5)cc4)cc3S(=O)(=O)C(F)(F)F)CC2)C(C)(C)C)cc1` [DT-2216], the DC50 in data set [1] was determined as 53 nM. In addition, the concentration for half-maximal inhibition (IC50) in the data set on MOLT-4 amounted to 77.1 nM; in the data set with RS4-11, 213 nM; in the data set with NCI-H146, 278 nM. The Activity in data set [2] came to 14%. Further, the result in [3] was inactive. The 50% inhibitory concentration (IC50) at 48 h in data set [4] was more than 10000 nM. Further, in data set [5], the “Ratio IC50” value is more than 130.

On to `Cc1ncsc1-c1ccc([C@H](C)NC(=O)[C@@H]2C[C@@H](O)CN2C(=O)[C@@H](NC(=O)CCCCCN2CCN(CC[C@H](CSc3ccccc3)Nc3ccc(S(=O)(=O)NC(=O)c4ccc(N5CCN(CC6=C(c7ccc(Cl)cc7)CCC(C)(C)C6)CC5)cc4)cc3S(=O)(=O)C(F)(F)F)CC2)C(C)(C)C)cc1`, for which the DC50 in data set [1] worked out at 93 nM. Further, the values for the IC50 in the data set with MOLT-4, with RS4-11 and with NCI-H146 were 82 nM, 76 nM and 203 nM, respectively. Also, the Activity in data set [2] is 43%. Besides, the outcome in [3] was inactive. The IC50 at 48 h in data set [4] was more than 10000 nM. Moreover, the “Ratio IC50” value in data set [5] is recorded as more than 122.

As to `CN(CCCNc1cccc2c1C(=O)N([C@@H]1CCC(=O)NC1=O)C2=O)CC[C@H](CSc1ccccc1)Nc1ccc(S(=O)(=O)NC(=O)c2ccc(N3CCN(CC4=C(c5ccc(Cl)cc5)CCC(C)(C)C4)CC3)cc2)cc1S(=O)(=O)C(F)(F)F`, the DC50 in data set [6] came out at 10.6 nM. Moreover, the IC50 in the data set with MOLT-4 came out at 32.5 nM; in the data set with RS4-11, 129 nM; in the data set on NCI-H146 it was 70.2 nM. Besides, the Activity in data set [7] was found to be 31%. For the same compound, the result in [8] was inactive. The IC50 at 48 h in [4] came out at 3300 nM. The “Ratio IC50” value in data set [5] is reported as 101.

On to `Cc1ncsc1-c1ccc([C@H](C)NC(=O)[C@@H]2C[C@@H](O)CN2C(=O)[C@@H](NC(=O)CCC(=O)N2CCN(CC[C@H](CSc3ccccc3)Nc3ccc(S(=O)(=O)NC(=O)c4ccc(N5CCN(CC6=C(c7ccc(Cl)cc7)CCC(C)(C)C6)CC5)cc4)cc3S(=O)(=O)C(F)(F)F)CC2)C(C)(C)C)cc1`, for which the IC50 with MOLT-4 is more than 2000 nM. The Activity in [2] was 92%. In data set [3], the outcome was inactive.

Take `Cc1ncsc1-c1ccc([C@H](C)NC(=O)[C@@H]2C[C@@H](O)CN2C(=O)[C@@H](NC(=O)COCCOCCOCCN(C)CC[C@H](CSc2ccccc2)Nc2ccc(S(=O)(=O)NC(=O)c3ccc(N4CCN(CC5=C(c6ccc(Cl)cc6)CCC(C)(C)C5)CC4)cc3)cc2S(=O)(=O)C(F)(F)F)C(C)(C)C)cc1`: the IC50 with MOLT-4 came out at 200 nM. In addition, in [2], the Activity was 33%. Also, the result in [3] was inactive.

For `Cc1ncsc1-c1ccc([C@H](C)NC(=O)[C@@H]2C[C@@H](O)CN2C(=O)[C@@H](NC(=O)CCCCCN(C)CC[C@H](CSc2ccccc2)Nc2ccc(S(=O)(=O)NC(=O)c3ccc(N4CCN(CC5=C(c6ccc(Cl)cc6)CCC(C)(C)C5)CC4)cc3)cc2S(=O)(=O)C(F)(F)F)C(C)(C)C)cc1`, in the data set on MOLT-4, the IC50 was 460 nM. For the same compound, the Activity in data set [2] was 60%. Also, the result in [3] was inactive.

For `Cc1ncsc1-c1ccc([C@H](C)NC(=O)[C@@H]2C[C@@H](O)CN2C(=O)[C@@H](NC(=O)CCCC(=O)N2CCN(CC[C@H](CSc3ccccc3)Nc3ccc(S(=O)(=O)NC(=O)c4ccc(N5CCN(CC6=C(c7ccc(Cl)cc7)CCC(C)(C)C6)CC5)cc4)cc3S(=O)(=O)C(F)(F)F)CC2)C(C)(C)C)cc1`, in the data set on MOLT-4, the IC50 was more than 2000 nM. Besides, the Activity in data set [2] was 82%. Besides, the result in data set [3] was inactive.

As for `CN(CCCCCCCn1cc(COCCOCCNc2cccc3c2C(=O)N([C@@H]2CCC(=O)NC2=O)C3=O)nn1)CC[C@H](CSc1ccccc1)Nc1ccc(S(=O)(=O)NC(=O)c2ccc(N3CCN(CC4=C(c5ccc(Cl)cc5)CCC(C)(C)C4)CC3)cc2)cc1S(=O)(=O)C(F)(F)F`, in data set [6], the DC50 was 6.3 nM. Further, the IC50 in the data set with MOLT-4 was 29.2 nM; in the data set with RS4-11, 62.2 nM; in the data set with NCI-H146, 61.7 nM. Besides, in [7], the Activity turned out to be 18%. In addition, the result in data set [8] was inactive. Moreover, in data set [4], the IC50 at 48 h is 6250 nM. In data set [5], the “Ratio IC50” value worked out at 214.

Take `Cc1ncsc1-c1ccc([C@H](C)NC(=O)[C@@H]2C[C@@H](O)CN2C(=O)[C@@H](NC(=O)CCCCC(=O)N2CCN(CC[C@H](CSc3ccccc3)Nc3ccc(S(=O)(=O)NC(=O)c4ccc(N5CCN(CC6=C(c7ccc(Cl)cc7)CCC(C)(C)C6)CC5)cc4)cc3S(=O)(=O)C(F)(F)F)CC2)C(C)(C)C)cc1`: the IC50 with MOLT-4 was determined as 467 nM. In data set [2], the Activity came to 52%. Further, the result in [3] was inactive.

As for `Cc1ncsc1-c1ccc([C@H](C)NC(=O)[C@@H]2C[C@@H](O)CN2C(=O)[C@@H](NC(=O)COCCCOCC(=O)N2CCN(CC[C@H](CSc3ccccc3)Nc3ccc(S(=O)(=O)NC(=O)c4ccc(N5CCN(CC6=C(c7ccc(Cl)cc7)CCC(C)(C)C6)CC5)cc4)cc3S(=O)(=O)C(F)(F)F)CC2)C(C)(C)C)cc1`, the IC50 in the data set on MOLT-4 is 232 nM. Besides, in data set [2], the Activity was found to be 48%. Also, the outcome in data set [3] was inactive.

For `Cc1ncsc1-c1ccc([C@H](C)NC(=O)[C@@H]2C[C@@H](O)CN2C(=O)[C@@H](NC(=O)CC(=O)N2CCN(CC[C@H](CSc3ccccc3)Nc3ccc(S(=O)(=O)NC(=O)c4ccc(N5CCN(CC6=C(c7ccc(Cl)cc7)CCC(C)(C)C6)CC5)cc4)cc3S(=O)(=O)C(F)(F)F)CC2)C(C)(C)C)cc1`, the IC50 with MOLT-4 was more than 2000 nM. Besides, the Activity in data set [2] amounted to 96%. In addition, the result in data set [3] was inactive.

With `Cc1ncsc1-c1ccc([C@H](C)NC(=O)[C@@H]2C[C@@H](O)CN2C(=O)[C@@H](NC(=O)CCOCCOCCN2CCN(CC[C@H](CSc3ccccc3)Nc3ccc(S(=O)(=O)NC(=O)c4ccc(N5CCN(CC6=C(c7ccc(Cl)cc7)CCC(C)(C)C6)CC5)cc4)cc3S(=O)(=O)C(F)(F)F)CC2)C(C)(C)C)cc1`, the IC50 in the data set with MOLT-4 is 914 nM. Further, the Activity in data set [2] came to 55%. The result in [3] was inactive.

Consider `O=C1CCC(N2C(=O)c3cccc(NCCOCCOCc4cn(CCCC(=O)N5CCN(CC#Cc6ccc(OCCCc7sc(N8CCc9cccc(C(=O)Nc%10nc%11ccccc%11s%10)c9C8)nc7C(=O)O)c(F)c6)CC5)nn4)c3C2=O)C(=O)N1` (configuration not stated), for which the DC50 in data set [6] stood at 50 nM.

With `Cc1ncsc1-c1ccc([C@H](C)NC(=O)[C@@H]2C[C@@H](O)CN2C(=O)[C@@H](NC(=O)COCCOCC(=O)N2CCN(CC[C@H](CSc3ccccc3)Nc3ccc(S(=O)(=O)NC(=O)c4ccc(N5CCN(CC6=C(c7ccc(Cl)cc7)CCC(C)(C)C6)CC5)cc4)cc3S(=O)(=O)C(F)(F)F)CC2)C(C)(C)C)cc1`, the IC50 in the data set with MOLT-4 was determined as 512 nM. The Activity in data set [2] was 79%. Also, the result in data set [3] was inactive.

Take `Cc1ncsc1-c1ccc([C@H](C)NC(=O)[C@@H]2C[C@@H](O)CN2C(=O)[C@@H](NC(=O)CCCCCCN(C)CC[C@H](CSc2ccccc2)Nc2ccc(S(=O)(=O)NC(=O)c3ccc(N4CCN(CC5=C(c6ccc(Cl)cc6)CCC(C)(C)C5)CC4)cc3)cc2S(=O)(=O)C(F)(F)F)C(C)(C)C)cc1`: the DC50 in data set [1] amounted to 71 nM. Besides, the IC50 in the data set with MOLT-4 was found to be 81.3 nM; with RS4-11, 189 nM; in the data set on NCI-H146, 265 nM. The Activity in data set [2] was determined as 28%. In addition, the outcome in data set [3] was inactive. Moreover, the IC50 at 48 h in [4] is more than 10000 nM. Further, the “Ratio IC50” value in data set [5] is recorded as more than 123.

Take `Cc1ncsc1-c1ccc([C@H](C)NC(=O)[C@@H]2C[C@@H](O)CN2C(=O)[C@@H](NC(=O)COCCOCCN(C)CC[C@H](CSc2ccccc2)Nc2ccc(S(=O)(=O)NC(=O)c3ccc(N4CCN(CC5=C(c6ccc(Cl)cc6)CCC(C)(C)C5)CC4)cc3)cc2S(=O)(=O)C(F)(F)F)C(C)(C)C)cc1`: the IC50 in the data set on MOLT-4 stood at 97 nM. Also, in data set [2], the Activity amounted to 24%. Further, the result in [3] was inactive.

For `Cc1ncsc1-c1ccc([C@H](C)NC(=O)[C@@H]2C[C@@H](O)CN2C(=O)[C@@H](NC(=O)CCCCCCCN(C)CC[C@H](CSc2ccccc2)Nc2ccc(S(=O)(=O)NC(=O)c3ccc(N4CCN(CC5=C(c6ccc(Cl)cc6)CCC(C)(C)C5)CC4)cc3)cc2S(=O)(=O)C(F)(F)F)C(C)(C)C)cc1`, the IC50 in the data set with MOLT-4 amounted to 147 nM. Further, the Activity in data set [2] worked out at 45%. Also, the result in data set [3] was inactive.

As for `Cc1ncsc1-c1ccc([C@H](C)NC(=O)[C@@H]2C[C@@H](O)CN2C(=O)[C@@H](NC(=O)CCCCCCCN2CCN(CC[C@H](CSc3ccccc3)Nc3ccc(S(=O)(=O)NC(=O)c4ccc(N5CCN(CC6=C(c7ccc(Cl)cc7)CCC(C)(C)C6)CC5)cc4)cc3S(=O)(=O)C(F)(F)F)CC2)C(C)(C)C)cc1`, in the data set on MOLT-4, the IC50 amounted to 181 nM. For the same compound, the Activity in data set [2] stood at 78%. Besides, in data set [3], the outcome was inactive.
